{
  "source": "patent US20260008862A1",
  "about": "“Bispecific Anti-BCMA x Anti-CD3 Antibodies and Uses Thereof” (Regeneron Pharmaceuticals, Inc., priority 2018, published 2026)",
  "key": {"[1]": {"system": "Jurkat/NFATLuc.3C7 cells + Raji cells", "assay": "Jurkat/NFATLuc reporter bioassay with Raji cells", "assay_type": "cell-based", "conditions": "highest RLU / lowest RLU", "description": "(§1) Activity of the anti-BCMA×anti-CD3 bispecific antibodies were assessed in a Jurkat/NFATLuc reporter bioassay utilizing several cell lines with varying levels of BCMA surface expression. The Jurkat cells were engineered to express an NFAT-luciferase reporter (Jurkat/NFATLuc.3C7), and 50,000 Jurkat reporter cells were combined with 50,000 BCMA positive (Daudi, MM1-S, NCI-H929, OPM-2, RPMI-8226, MOLP-8, or Raji) or BCMA negative (HEK293) cells in Thermo Nunclon delta 96 well white microwell plates (Thermo Scientific, Cat #136102) in 50 ul of assay media (RPMI media with 10% FBS and 1% P/S/G). Three-fold serial dilutions of the BCMA×CD3 bispecific antibodies (mAb25441 D or mAb25442D), or a bivalent anti-BCMA antibody (mAb21581) were immediately added in 50 μL of assay buffer. The plates were gently agitated and incubated in a 37° C., 5% CO2 incubator for 4-6 hours. NFAT-Luciferase activity was determined using Promega One-Glo (Cat #E6130) and a Perkin Elmer Envision plate reader. RLU were plotted in GraphPad Prism using a four-parameter logistic equation over a 12-point response curve to calculate EC50 values. […] The signal to noise (S:N) is determined by taking the ratio of the highest RLU on the curve to the lowest."}, "[2]": {"system": "Jurkat/NFATLuc.3C7 cells + RPMI-8226 cells", "assay": "Jurkat/NFATLuc reporter bioassay with RPMI-8226 cells", "assay_type": "cell-based", "conditions": "highest RLU / lowest RLU", "description": "as §1"}, "[3]": {"system": "established BCMA-expressing NCI-H929 tumors", "assay": "Established NCI-H929 + PBMC xenogenic tumor model, treatment from day 5 (Example 12)", "assay_type": "in vivo, mouse", "conditions": "for Average Tumor Size (mm3) ± SEM on Day 5: Day 5 (day of first dose)", "description": "To determine the in vivo efficacy of anti-BCMA×anti-CD3 bispecific antibodies (Abs), a xenogenic tumor study was performed. Immunodeficient NOD.Cg-Prkdc^scidIl2rg^tm1Wji/SzJ (NSG) mice were subcutaneously implanted with a mixture of 10×10^6 BCMA-expressing NCI-H929 human multiple myeloma tumor cells and 0.5×10^6 human peripheral blood mononuclear cells (PBMC) isolated from a normal, healthy donor. The tumors were allowed to grow and establish for 5 days until they were approximately 70 mm^3 in size. […] The mice were administered these Abs twice per week for a total of seven doses, and tumor growth was assessed over 55 days. While BCMA^+ NCI-H929 tumors grew similarly in the vehicle- and CD3-binding control-treated mice, both BCMA×CD3 Abs that were tested shrank established tumors and prevented the growth of tumors in a dose-dependent manner in vivo.\nImplantation and measurement of xenogenic tumors: NSG mice were subcutaneously implanted with a mixture of 10×10^6 BCMA-expressing NCI-H929 multiple myeloma cells and 0.5×10^6 PBMC derived from a normal, healthy donor. The tumors were allowed to grow and establish for 5 days until they were approximately 70 mm^3 in size. […] The mice were administered Abs twice per week for a total of seven doses. Tumor growth was measured with calipers twice per week for the duration of the experiment.\nCalculation of xenogenic tumor growth and inhibition: In order to determine tumor volume by external caliper, the greatest longitudinal diameter (length in mm) and the greatest transverse diameter (width in mm) were determined. Tumor volumes based on caliper measurements were calculated by the formula: Volume (mm^3) […] (length×width^2)/2."}, "[4]": {"system": "Jurkat/NFATLuc.3C7 cells + HEK293 (BCMA negative) cells", "assay": "Jurkat/NFATLuc reporter bioassay with HEK293 cells", "assay_type": "cell-based", "conditions": "highest RLU / lowest RLU", "description": "as §1"}, "[5]": {"system": "BCMA+ OPM-2-luciferase tumors", "assay": "OPM-2-luciferase intravenous xenogenic tumor model, BLI (Example 15)", "assay_type": "in vivo, mouse", "conditions": "0.4 mg/kg on days 21, 25 and 28", "description": "(§2) To determine the in vivo efficacy of anti-BCMA×anti-CD3 bispecific antibodies (Abs), a xenogenic tumor study was performed. On day 0, immunodeficient NOD.Cg-Prkdc^scidIl2rg^tm1Wji/SzJ (NSG) mice were intravenously administered 2×10^6 BCMA^+ OPM-2 human multiple myeloma tumor cells that were engineered to also express firefly luciferase (OPM-2-luciferase cells). On day 10, the mice were intraperitoneally injected with 4×10^6 human peripheral blood mononuclear cells (PBMC) from a normal, healthy donor. […] The mice were administered these Abs twice more on days 25 and 28, for a total of three doses. Tumor growth was assessed through day 61 by measuring tumor bioluminescence (BLI) in anesthetized animals. As a positive control, a group of mice (n=5) was given only OPM-2-luciferase cells, but not PBMC or antibody.\nas §2, with “Implantation and measurement” for “To determine the in vivo efficacy”, “of” for “of anti-BCMA×anti-CD3 bispecific antibodies (Abs), a”, “tumors:” for “tumor study was performed.”\nMeasurement of xenogenic tumor growth: BLI imaging was used to measure tumor burden. Mice were injected IP with 150 mg/kg of the luciferase substrate D-luciferin suspended in PBS. Five minutes after this injection, BLI imaging of the mice was performed under isoflurane anesthesia using the Xenogen IVIS system. Image acquisition was carried out with the field of view at D, subject height of 1.5 cm, and medium binning level with automatic exposure time determined by the Living Image Software. BLI signals were extracted using Living Image software: regions of interest were drawn around each tumor mass and photon intensities were recorded as p/s/cm2/sr."}},
  "data": [
    {"substance": "REGN5458: anti-BCMA×anti-CD3 bispecific antibody: BCMA HCVR of mAb21581 (SEQ 66), CD3 HCVR of mAb7221G (SEQ 90), common LCVR SEQ 82", "values": [
      {"measurement": "S:N", "setting": "[1]", "result": 123},
      {"measurement": "S:N", "setting": "[2]", "result": 55},
      {"measurement": "Average Tumor Size (mm3) ± SEM on Day 5", "setting": "[3]; 0.04 mg/kg", "result": "58.1 ± 5.6", "unit": "mm3"},
      {"measurement": "Average Tumor Size (mm3) ± SEM on Day 8", "setting": "[3]; 0.04 mg/kg", "result": "130.3 ± 16.7", "unit": "mm3"},
      {"measurement": "Average Tumor Size (mm3) ± SEM on Day 12", "setting": "[3]; 0.04 mg/kg", "result": "525.9 ± 71.5", "unit": "mm3"},
      {"measurement": "Average Tumor Size (mm3) ± SEM on Day 15", "setting": "[3]; 0.04 mg/kg", "result": "1031.2 ± 164.3", "unit": "mm3"},
      {"measurement": "Average Tumor Size (mm3) ± SEM on Day 19", "setting": "[3]; 0.04 mg/kg", "result": "2467.5 ± 370.0", "unit": "mm3"},
      {"measurement": "Average Tumor Size (mm3) ± SEM on Day 22", "setting": "[3]; 0.04 mg/kg", "result": "3745.7 ± 541.2", "unit": "mm3"},
      {"measurement": "Average Tumor Size (mm3) ± SEM on Day 27", "setting": "[3]; 0.04 mg/kg", "result": "1589.1 ± 0", "unit": "mm3"},
      {"measurement": "Average Tumor Size (mm3) ± SEM on Day 30", "setting": "[3]; 0.04 mg/kg", "result": "2886.5 ± 0", "unit": "mm3"},
      {"measurement": "Average Tumor Size (mm3) ± SEM on Day 5", "setting": "[3]; 0.4 mg/kg", "result": "69.3 ± 7.3", "unit": "mm3"},
      {"measurement": "Average Tumor Size (mm3) ± SEM on Day 8", "setting": "[3]; 0.4 mg/kg", "result": "120.3 ± 16.3", "unit": "mm3"},
      {"measurement": "Average Tumor Size (mm3) ± SEM on Day 12", "setting": "[3]; 0.4 mg/kg", "result": "262.7 ± 61.6", "unit": "mm3"},
      {"measurement": "Average Tumor Size (mm3) ± SEM on Day 15", "setting": "[3]; 0.4 mg/kg", "result": "476.2 ± 133.5", "unit": "mm3"},
      {"measurement": "Average Tumor Size (mm3) ± SEM on Day 19", "setting": "[3]; 0.4 mg/kg", "result": "1347.5 ± 334.7", "unit": "mm3"},
      {"measurement": "Average Tumor Size (mm3) ± SEM on Day 22", "setting": "[3]; 0.4 mg/kg", "result": "2068.5 ± 465.0", "unit": "mm3"},
      {"measurement": "Average Tumor Size (mm3) ± SEM on Day 27", "setting": "[3]; 0.4 mg/kg", "result": "3463.9 ± 1025.0", "unit": "mm3"},
      {"measurement": "Average Tumor Size (mm3) ± SEM on Day 30", "setting": "[3]; 0.4 mg/kg", "result": "2144.2 ± 2144.2", "unit": "mm3"},
      {"measurement": "Average Tumor Size (mm3) ± SEM on Day 35", "setting": "[3]; 0.4 mg/kg", "result": "0 ± 0", "unit": "mm3"},
      {"measurement": "Average Tumor Size (mm3) ± SEM on Day 40", "setting": "[3]; 0.4 mg/kg", "result": "0 ± 0", "unit": "mm3"},
      {"measurement": "Average Tumor Size (mm3) ± SEM on Day 55", "setting": "[3]; 0.4 mg/kg", "result": "0 ± 0", "unit": "mm3"},
      {"measurement": "Average Tumor Size (mm3) ± SEM on Day 5", "setting": "[3]; 4 mg/kg", "result": "71.9 ± 10.3", "unit": "mm3"},
      {"measurement": "Average Tumor Size (mm3) ± SEM on Day 8", "setting": "[3]; 4 mg/kg", "result": "64.7 ± 16.4", "unit": "mm3"},
      {"measurement": "Average Tumor Size (mm3) ± SEM on Day 12", "setting": "[3]; 4 mg/kg", "result": "19.5 ± 10.9", "unit": "mm3"},
      {"measurement": "Average Tumor Size (mm3) ± SEM on Day 15", "setting": "[3]; 4 mg/kg", "result": "25.6 ± 19.2", "unit": "mm3"},
      {"measurement": "Average Tumor Size (mm3) ± SEM on Day 19", "setting": "[3]; 4 mg/kg", "result": "40.6 ± 32.8", "unit": "mm3"},
      {"measurement": "Average Tumor Size (mm3) ± SEM on Day 22", "setting": "[3]; 4 mg/kg", "result": "78.3 ± 60.8", "unit": "mm3"},
      {"measurement": "Average Tumor Size (mm3) ± SEM on Day 27", "setting": "[3]; 4 mg/kg", "result": "252.3 ± 185.1", "unit": "mm3"},
      {"measurement": "Average Tumor Size (mm3) ± SEM on Day 30", "setting": "[3]; 4 mg/kg", "result": "411.3 ± 307.2", "unit": "mm3"},
      {"measurement": "Average Tumor Size (mm3) ± SEM on Day 35", "setting": "[3]; 4 mg/kg", "result": "633.5 ± 473.5", "unit": "mm3"},
      {"measurement": "Average Tumor Size (mm3) ± SEM on Day 40", "setting": "[3]; 4 mg/kg", "result": "369.5 ± 369.5", "unit": "mm3"},
      {"measurement": "Average Tumor Size (mm3) ± SEM on Day 55", "setting": "[3]; 4 mg/kg", "result": "0 ± 0", "unit": "mm3"},
      {"measurement": "S:N", "setting": "[4]", "result": 1},
      {"measurement": "tumor burden (in words)", "setting": "[5]", "result": "reduced tumor burdens to background levels in the majority of animals"}
    ]}
  ]
}
